The text below walks through data of patent publication US4178442A, “Novel cinnamoyles piperazines and homopiperazines, the method of preparing them and their application in therapeutics” (Delalande S. A., priority 1977, dated 1979).

Where two headings read alike, the source gives them in different places. A value given as a limit tells only on which side of the number the result lay.

Common to all, as to type: in vivo
The test system of assay [1] is anaesthetized dog. Kind of assay: Activity on the peripheral circulation, anaesthetized dog. To be noted: dog; for change in vivo at 10 mg/kg / change in vivo at 5 mg/kg: Canis lupus familiaris, iv. On the procedure:
The activity on the peripheral circulation was studied on an anaesthetized dog (sodium pentobarbital 30 mg/kg/i.v.). The femoral artery flow was measured by means of an electromagnetic or ultrasonic perivascular Doppler effect probe.

Assay [2] concerns anaesthetized dog. Put plainly: Activity on the cerebral circulation, anaesthetized dog. To be noted: dog; for change in vivo at 2 mg/kg / change in vivo at 5 mg/kg: Canis lupus familiaris, iv. How it is done:
The activity on the cerebral circulation was tested on an anaesthetized dog (sodium pentobarbital 30 mg/kg/i.v.). The vertebral artery flow was measured by means of an electromagnetic perivascular or ultrasonic Doppler effect probe. The intracerebral vascular resistance was estimated by the back pressure of the internal carotid artery. […] The increase in the extraction of cerebral oxygen was estimated by the following equation:(A-V)/A in which: A represents the volume of oxygen in the arterial blood (% volume) measured by hemoreflectometry (KIPP and ZONEN's apparatus) and quantity determination of the haemoglobin (DRABKIN's method). V represents the volume of oxygen in the cerebral venous blood (internal maxillary vein). […] It should be noted that the compounds tested were injected intravenously (rapid injection).

For assay [3], the system named is anaesthetized dog. Kind of assay: Antiangorous activity on anaesthetized dog: consumption of oxygen in the left ventricule and cardiac effort (KATZ's index). To be noted: 2.5 mg/kg i.v. slow perfusion; for inhibition in vivo at 2.5 mg/kg: Canis lupus familiaris, iv. The essentials: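 Katz index taken as mean arterial pressure multiplied by ECG (D2) heart rate, and myocardial O2 use as coronary sinus flow via modified Morawitz cannula times coronary arteriovenous O2 difference. Animals: pentobarbital-anaesthetized dogs (30 mg/kg i.v.), test compounds infused slowly intravenously.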

For `COc1ccccc1OCC(O)CN1CCN(C(=O)/C=C/c2cc(OC)c(OC)c(OC)c2)CC1` (stereo not drawn) [760 392], the change in vivo at 10 mg/kg in the assay with anaesthetized dog [1] (10 mg/kg i.v. slow perfusion, read-out: Average arterial pressure) was -28%. Moreover, in the assay on anaesthetized dog [1] (10 mg/kg i.v. slow perfusion, read-out: Femoral artery flow), the change in vivo at 10 mg/kg came to 56%. In the assay with anaesthetized dog [1] (10 mg/kg i.v. slow perfusion), the “Average arterial pressure: in time” value is given as 38 min and the “Femoral artery flow: in time” value amounted to 45 min. Also, in the assay on anaesthetized dog [2] (2 mg/kg i.v. rapid injection, read-out: Internal carotid artery back pressure), the change in vivo at 2 mg/kg was -79%. Further, the change in vivo at 2 mg/kg in the assay with anaesthetized dog [2] (2 mg/kg i.v. rapid injection, read-out: Systemic average arterial pressure) was -39%. Besides, the change in vivo at 2 mg/kg in the assay on anaesthetized dog [2] (2 mg/kg i.v. rapid injection, read-out: Vertebral artery flow) was determined as 186%. In the assay on anaesthetized dog [2] (2 mg/kg i.v. rapid injection), the “Internal carotid artery back pressure: in time” value is listed as greater than 30 min, the Systemic average arterial pressure: in time amounted to 30 min and the “Vertebral artery flow: in time” value was less than 30 min. In addition, in the assay with anaesthetized dog [3], the “Diminution in consumption of O2: in time” value was 30 min and the “Diminution in the cardiac effort (IK): in time” value was found to be 30 min. In addition, in the assay with anaesthetized dog [3] (read-out: Diminution in consumption of O2), the inhibition in vivo at 2.5 mg/kg came out at 31%. Also, the inhibition in vivo at 2.5 mg/kg with anaesthetized dog [3] (read-out: Diminution in the cardiac effort (IK)) stood at 11%.
Consider `COc1cc(/C=C/C(=O)N2CCN(CC(O)COc3ccc(C)cc3)CC2)cc(OC)c1OC` (stereo not drawn) [760 505], for which the change in vivo at 5 mg/kg in the assay with anaesthetized dog [1] (5 mg/kg i.v. slow perfusion, read-out: Average arterial pressure) was -21%; in the assay with anaesthetized dog [1] (5 mg/kg i.v. slow perfusion, read-out: Femoral artery flow), 24%; in the assay with anaesthetized dog [2] (5 mg/kg i.v. rapid injection, read-out: Internal carotid artery back pressure) it was -38%; in the assay on anaesthetized dog [2] (5 mg/kg i.v. rapid injection, read-out: Systemic average arterial pressure) it was -11%; in the assay with anaesthetized dog [2] (5 mg/kg i.v. rapid injection, read-out: Vertebral artery flow) it was 113%. Also, the “Average arterial pressure: in time” value with anaesthetized dog [1] (5 mg/kg i.v. slow perfusion) came out at 23 min. Further, the “Femoral artery flow: in time” value in the assay with anaesthetized dog [1] (5 mg/kg i.v. slow perfusion) worked out at 15 min. Further, in the assay on anaesthetized dog [2] (5 mg/kg i.v. rapid injection), the “Internal carotid artery back pressure: in time” value came to 10 min. Besides, the Systemic average arterial pressure: in time with anaesthetized dog [2] (5 mg/kg i.v. rapid injection) stood at 20 min. The “Vertebral artery flow: in time” value in the assay on anaesthetized dog [2] (5 mg/kg i.v. rapid injection) is reported as 10 min.
